The target of this assay is T1, mGlyT-1b (Mus musculus, UniProt P28571).
T1 construct: host or cells: Flp-in-CHO
T1 sequence (P28571 1-651 isoform P28571-2): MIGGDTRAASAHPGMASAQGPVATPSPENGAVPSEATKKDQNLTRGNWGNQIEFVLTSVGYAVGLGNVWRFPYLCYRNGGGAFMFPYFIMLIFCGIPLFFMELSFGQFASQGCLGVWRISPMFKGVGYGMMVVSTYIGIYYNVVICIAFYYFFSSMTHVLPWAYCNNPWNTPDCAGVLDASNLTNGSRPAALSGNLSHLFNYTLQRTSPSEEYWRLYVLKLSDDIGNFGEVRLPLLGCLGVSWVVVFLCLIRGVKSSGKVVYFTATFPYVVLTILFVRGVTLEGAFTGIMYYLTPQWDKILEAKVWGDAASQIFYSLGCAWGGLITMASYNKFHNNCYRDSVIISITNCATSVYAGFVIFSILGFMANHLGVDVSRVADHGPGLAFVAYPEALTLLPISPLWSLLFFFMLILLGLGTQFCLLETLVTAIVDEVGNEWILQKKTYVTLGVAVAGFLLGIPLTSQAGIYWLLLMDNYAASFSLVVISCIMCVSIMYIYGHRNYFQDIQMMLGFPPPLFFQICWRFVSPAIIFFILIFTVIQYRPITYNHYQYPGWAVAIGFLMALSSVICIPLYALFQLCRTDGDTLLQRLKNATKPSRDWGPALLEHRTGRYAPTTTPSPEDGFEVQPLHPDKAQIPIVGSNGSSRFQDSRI
Description: Glycine Uptake Inhibition Assay (mGlyT-1b). The assay is classed as cell-based. The settings on record: [3H]-glycine uptake in Flp-in-CHO cells transfected with mGlyT-1b cDNA; 20 min at 22° C.; read-out: GlyT-1 IC50. Here is the method: DMEM complete medium: Nutrient mixture F-12 (Gibco Life-technologies), fetal bovine serum (FBS) 5%, (Gibco life technologies), Penicillin/Streptomycin 1% (Gibco life technologies), Hygromycin 0.6 mg/ml (Gibco life technologies), Glutamine 1 mM Gibco life technologies)
Uptake buffer (UB): 150 mM NaCl, 10 mM Hepes-Tris, pH 7.4, 1 mM CaCl2, 2.5 mM KCl, 2.5 mM MgSO4, 10 mM (+) D-glucose.
Flp-in™-CHO (Invitrogen Cat n^o R758-07) cells stably transfected with mGlyT1b cDNA.
Glycine Uptake Inhibition Assay (mGlyT-1b)
On day 1 mammalian cells, (Flp-in™-CHO), transfected with mGlyT-1b cDNA, were plated at the density of 40,000 cells/well in complete F-12 medium, without hygromycin in 96-well culture plates. On day 2, the medium was aspirated and the cells were washed twice with uptake buffer (UB). The cells were then incubated for 20 min at 22° C. with either (i) no potential competitor, (ii) 10 mM non-radioactive glycine, (iii) a concentration of a potential inhibitor. A range of concentrations of the potential inhibitor was used to generate data for calculating the concentration of inhibitor resulting in 50% of the effect (e.g. IC50, the concentration of the competitor inhibiting glycine uptake of 50%). A solution was then immediately added containing [^3H]-glycine 60 nM (11-16 Ci/mmol) and 25 μM non-radioactive glycine. The plates were incubated with gentle shaking and the reaction was stopped by aspiration of the mixture and washing (three times) with ice-cold UB. The cells were lysed with scintillation liquid, shaken 3 hours and the radioactivity in the cells was counted using a scintillation counter.

By pIC50 is commonly meant the IC50 on a negative log10 scale, so that one unit is a factor of ten.

pIC50: −log10 of the molar value.

With `O=C(CNC(=O)c1ccccc1)NC(c1ccccc1)c1cccc(C(F)(F)F)c1` (racemic) [Example 1.30, rac-N-({[Phenyl-(3-trifluoromethyl-phenyl)-methyl]-carbamoyl}-methyl)-benzamide], the negative logarithm of the IC50 (pIC50) is 7.27.

For `O=C(CNC(=O)c1ccc([N+](=O)[O-])s1)NC(c1ccccc1)c1ccc(Cl)cc1` (racemic) [Example 1.32, rac-5-Nitro-thiophene-2-carboxylic acid ({[(4-chloro-phenyl)-phenyl-methyl]-carbamoyl}-methyl)-amide], the pIC50 was 7.82.

With `N#Cc1ccc(C(=O)NCC(=O)NC(c2ccccc2)c2cccc(C(F)(F)F)c2)cc1` (racemic) [Example 1.44, rac-4-Cyano-N-({[phenyl-(3-trifluoromethyl-phenyl)-methyl]-carbamoyl}-methyl)-benzamide], the pIC50 was 7.72.

In the case of `O=C(CNC(=O)c1ccc(F)cc1)NC(c1ccccc1)c1ccc(F)cc1` (racemic) [Example 1.69, rac-4-Fluoro-N-({[(4-fluoro-phenyl)-phenyl-methyl]-carbamoyl}-methyl)-benzamide], the pIC50 was 7.06.

`O=C(CNC(=O)c1ccc(F)cc1)NC(c1ccccc1)c1cc(F)cc(F)c1` (racemic) [Example 1.72, rac-N-({[(3,5-Difluoro-phenyl)-phenyl-methyl]-carbamoyl}-methyl)-4-fluoro-benzamide]: the pIC50 is 7.60.

With `O=C(CNC(=O)c1ccc(F)cc1)NC(c1ccc(Cl)cc1)c1cccc(C(F)(F)F)c1` (racemic) [Example 1.76, rac-N-({[(4-Chloro-phenyl)-(3-trifluoromethyl-phenyl)-methyl]-carbamoyl}-methyl)-4-fluoro-benzamide], the negative-log IC50 (pIC50) is 7.13.

In the case of `O=C(CNC(=O)c1ccc(F)cc1)NC(c1ccc(F)cc1)c1cccc(C(F)(F)F)c1` (racemic) [Example 1.77, rac-4-Fluoro-N-({[(4-fluoro-phenyl)-(3-trifluoromethyl-phenyl)-methyl]-carbamoyl}-methyl)-benzamide], the pIC50 was 7.32.

As for `Cc1ccc(C(NC(=O)CNC(=O)c2ccc(F)cc2)c2cccc(C(F)(F)F)c2)cc1` (racemic) [Example 1.78, rac-4-Fluoro-N-({[p-tolyl-(3-trifluoromethyl-phenyl)-methyl]-carbamoyl}-methyl)-benzamide], the pIC50 was 7.24.

Turning to `Cc1ccc(C(=O)NCC(=O)NC(c2cccc(F)c2)c2cccc(F)c2)s1` [Example 1.86, 5-Methyl-thiophene-2-carboxylic acid ({[bis-(3-fluoro-phenyl)-methyl]-carbamoyl}-methyl)-amide], the negative-log IC50 (pIC50) is 7.38.

Turning to `O=C(CNC(=O)c1ccsc1)NC(c1cccc(F)c1)c1cccc(F)c1` [Example 1.98, Thiophene-3-carboxylic acid ({[bis-(3-fluoro-phenyl)-methyl]-carbamoyl}-methyl)-amide], the pIC50 is 7.55.
